Test results reported in the kinase profiling compilation of Christmann-Franck et al. (2016).

How the values were obtained:
Conditions in all cases: compound 10.0 µM
[1] = target: TIE1 (human) (UniProt P35590)
[2] = target: ANKK1 (human) (UniProt Q8NFD2)
[3] = tested on: EGFR (human), P00533 [G719S]
[4] = tested on: PIK3CA (human), P42336 [H1047L]
[5] = target: LCK (human) (UniProt P06239)
[6] = target: PIK3CD (human) (UniProt O00329)
[7] = target: CDK8 (human) (UniProt P49336)
[8] = target: AURKB (human) (UniProt Q96GD4)
Sequence of AURKB (human) (Q96GD4 whole entry, looked up): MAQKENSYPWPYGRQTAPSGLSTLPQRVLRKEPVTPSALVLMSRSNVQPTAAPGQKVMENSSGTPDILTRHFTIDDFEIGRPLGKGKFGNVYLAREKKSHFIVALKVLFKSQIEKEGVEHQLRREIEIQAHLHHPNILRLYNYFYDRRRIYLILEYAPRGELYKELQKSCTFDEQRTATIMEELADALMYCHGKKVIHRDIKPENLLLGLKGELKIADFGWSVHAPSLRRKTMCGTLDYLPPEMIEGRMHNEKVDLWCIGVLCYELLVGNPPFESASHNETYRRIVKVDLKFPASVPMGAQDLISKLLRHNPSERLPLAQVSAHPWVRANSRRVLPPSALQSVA

[9] = target: PIK3CG (human) (UniProt P48736)
Sequence of PIK3CG (human) (P48736 whole entry, looked up): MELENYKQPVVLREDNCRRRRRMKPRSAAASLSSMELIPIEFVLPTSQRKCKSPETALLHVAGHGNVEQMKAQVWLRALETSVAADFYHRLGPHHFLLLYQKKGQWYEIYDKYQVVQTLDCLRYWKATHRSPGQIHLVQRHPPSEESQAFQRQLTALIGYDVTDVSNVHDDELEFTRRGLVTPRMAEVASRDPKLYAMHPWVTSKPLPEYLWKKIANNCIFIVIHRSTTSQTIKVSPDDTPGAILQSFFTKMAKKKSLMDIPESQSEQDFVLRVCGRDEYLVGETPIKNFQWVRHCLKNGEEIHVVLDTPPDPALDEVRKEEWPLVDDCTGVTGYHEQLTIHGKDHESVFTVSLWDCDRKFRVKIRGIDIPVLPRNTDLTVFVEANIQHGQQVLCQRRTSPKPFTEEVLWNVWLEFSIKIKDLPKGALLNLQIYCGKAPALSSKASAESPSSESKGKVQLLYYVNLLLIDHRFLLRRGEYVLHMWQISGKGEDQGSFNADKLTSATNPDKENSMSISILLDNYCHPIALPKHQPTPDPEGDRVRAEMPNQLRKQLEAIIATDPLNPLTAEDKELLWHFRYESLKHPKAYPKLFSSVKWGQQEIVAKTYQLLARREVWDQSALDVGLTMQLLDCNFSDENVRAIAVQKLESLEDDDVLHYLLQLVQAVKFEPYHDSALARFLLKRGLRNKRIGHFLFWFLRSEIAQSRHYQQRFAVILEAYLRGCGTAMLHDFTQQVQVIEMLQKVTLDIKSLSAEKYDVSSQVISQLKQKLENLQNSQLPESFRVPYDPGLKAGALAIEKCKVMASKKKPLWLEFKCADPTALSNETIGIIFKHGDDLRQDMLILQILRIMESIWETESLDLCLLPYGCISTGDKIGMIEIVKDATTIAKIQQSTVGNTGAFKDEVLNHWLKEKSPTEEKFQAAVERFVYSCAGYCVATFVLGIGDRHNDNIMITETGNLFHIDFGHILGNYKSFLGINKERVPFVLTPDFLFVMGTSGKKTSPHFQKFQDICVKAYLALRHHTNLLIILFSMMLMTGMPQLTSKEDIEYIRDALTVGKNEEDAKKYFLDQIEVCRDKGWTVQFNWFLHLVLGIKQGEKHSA

[10] = target: ABL2 (human) (UniProt P42684)
Sequence of ABL2 (human) (P42684 whole entry, looked up): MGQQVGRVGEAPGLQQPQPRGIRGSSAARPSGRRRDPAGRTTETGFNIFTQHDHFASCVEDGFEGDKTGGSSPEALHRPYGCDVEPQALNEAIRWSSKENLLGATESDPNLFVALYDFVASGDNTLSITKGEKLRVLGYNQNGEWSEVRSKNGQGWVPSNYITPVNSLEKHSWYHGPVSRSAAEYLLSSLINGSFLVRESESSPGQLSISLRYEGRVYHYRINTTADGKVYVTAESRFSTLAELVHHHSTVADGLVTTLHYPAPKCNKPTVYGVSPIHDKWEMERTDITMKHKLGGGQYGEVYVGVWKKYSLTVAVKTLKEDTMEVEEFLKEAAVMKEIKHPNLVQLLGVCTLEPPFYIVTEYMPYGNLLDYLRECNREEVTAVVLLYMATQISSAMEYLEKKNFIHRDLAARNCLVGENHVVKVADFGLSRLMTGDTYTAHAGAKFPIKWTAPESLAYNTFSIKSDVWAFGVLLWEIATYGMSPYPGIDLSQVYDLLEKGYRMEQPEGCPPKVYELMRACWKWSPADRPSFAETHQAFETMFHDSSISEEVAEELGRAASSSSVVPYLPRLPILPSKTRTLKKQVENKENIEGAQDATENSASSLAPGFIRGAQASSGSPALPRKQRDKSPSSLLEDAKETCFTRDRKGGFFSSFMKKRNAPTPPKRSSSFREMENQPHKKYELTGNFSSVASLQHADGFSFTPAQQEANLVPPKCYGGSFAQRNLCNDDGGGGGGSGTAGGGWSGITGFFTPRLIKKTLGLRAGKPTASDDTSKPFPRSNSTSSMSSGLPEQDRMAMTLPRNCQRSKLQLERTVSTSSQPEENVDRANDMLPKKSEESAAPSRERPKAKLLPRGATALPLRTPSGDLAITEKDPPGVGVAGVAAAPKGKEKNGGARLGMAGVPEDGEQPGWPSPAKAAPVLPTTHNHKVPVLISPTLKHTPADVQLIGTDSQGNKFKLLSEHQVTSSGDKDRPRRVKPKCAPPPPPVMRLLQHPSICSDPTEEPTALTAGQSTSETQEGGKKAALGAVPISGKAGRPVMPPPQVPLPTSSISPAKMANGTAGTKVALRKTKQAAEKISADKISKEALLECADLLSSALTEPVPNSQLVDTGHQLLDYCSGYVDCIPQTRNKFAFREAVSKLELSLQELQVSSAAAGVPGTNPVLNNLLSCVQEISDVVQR

[11] = target: AKT2 (human) (UniProt P31751)
Sequence of AKT2 (human) (P31751 whole entry, looked up): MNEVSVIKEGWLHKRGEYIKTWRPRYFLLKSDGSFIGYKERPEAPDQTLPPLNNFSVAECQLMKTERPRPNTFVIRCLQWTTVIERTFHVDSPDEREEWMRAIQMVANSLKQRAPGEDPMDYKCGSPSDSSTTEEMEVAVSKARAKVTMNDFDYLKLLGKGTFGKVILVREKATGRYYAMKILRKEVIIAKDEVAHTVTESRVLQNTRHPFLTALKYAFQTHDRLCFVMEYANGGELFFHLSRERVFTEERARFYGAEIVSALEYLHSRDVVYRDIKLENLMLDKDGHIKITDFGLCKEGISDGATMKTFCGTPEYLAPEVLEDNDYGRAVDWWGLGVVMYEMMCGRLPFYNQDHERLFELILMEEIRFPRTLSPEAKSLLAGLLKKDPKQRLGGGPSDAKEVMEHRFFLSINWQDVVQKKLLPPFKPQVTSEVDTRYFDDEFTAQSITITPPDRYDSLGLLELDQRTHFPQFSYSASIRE

[12] = target: EGFR (human) (UniProt P00533)
[13] = tested on: EGFR (human), P00533 [A750P; 747-749 del]
[14] = tested on: FLT3 (human), P36888 [D835Y]

Sequence of ANKK1 (human) (Q8NFD2 whole entry, looked up): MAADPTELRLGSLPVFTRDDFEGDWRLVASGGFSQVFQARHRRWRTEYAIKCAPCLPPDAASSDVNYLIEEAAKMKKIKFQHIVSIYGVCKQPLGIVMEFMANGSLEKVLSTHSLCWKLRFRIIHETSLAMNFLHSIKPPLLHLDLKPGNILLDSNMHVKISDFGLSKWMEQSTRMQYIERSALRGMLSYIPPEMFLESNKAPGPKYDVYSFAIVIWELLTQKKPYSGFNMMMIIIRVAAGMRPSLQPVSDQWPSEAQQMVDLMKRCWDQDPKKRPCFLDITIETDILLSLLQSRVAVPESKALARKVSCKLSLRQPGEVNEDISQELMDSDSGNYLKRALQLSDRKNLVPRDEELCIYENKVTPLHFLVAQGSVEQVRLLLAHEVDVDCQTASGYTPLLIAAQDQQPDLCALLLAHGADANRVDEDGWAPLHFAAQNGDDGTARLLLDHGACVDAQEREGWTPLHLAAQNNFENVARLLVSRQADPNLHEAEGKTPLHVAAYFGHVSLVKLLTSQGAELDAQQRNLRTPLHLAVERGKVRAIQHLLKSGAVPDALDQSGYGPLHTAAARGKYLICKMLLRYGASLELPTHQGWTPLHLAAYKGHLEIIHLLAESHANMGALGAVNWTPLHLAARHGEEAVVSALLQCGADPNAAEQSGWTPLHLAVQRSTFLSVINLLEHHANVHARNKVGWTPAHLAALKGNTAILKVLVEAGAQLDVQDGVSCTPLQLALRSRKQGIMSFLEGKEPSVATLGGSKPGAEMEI
Sequence of LCK (human) (P06239 whole entry, looked up): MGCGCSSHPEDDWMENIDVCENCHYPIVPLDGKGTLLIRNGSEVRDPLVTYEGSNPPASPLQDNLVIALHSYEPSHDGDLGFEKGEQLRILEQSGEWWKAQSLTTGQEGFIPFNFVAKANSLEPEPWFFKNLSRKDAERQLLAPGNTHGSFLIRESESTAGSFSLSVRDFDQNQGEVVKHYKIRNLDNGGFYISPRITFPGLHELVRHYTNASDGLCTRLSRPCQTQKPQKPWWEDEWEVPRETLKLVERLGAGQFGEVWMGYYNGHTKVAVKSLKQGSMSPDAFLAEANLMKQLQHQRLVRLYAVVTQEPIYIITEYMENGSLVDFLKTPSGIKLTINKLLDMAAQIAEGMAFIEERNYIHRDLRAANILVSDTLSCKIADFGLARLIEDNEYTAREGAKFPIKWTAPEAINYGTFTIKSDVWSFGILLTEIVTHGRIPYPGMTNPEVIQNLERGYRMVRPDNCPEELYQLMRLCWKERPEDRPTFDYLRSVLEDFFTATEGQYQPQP
Sequence of CDK8 (human) (P49336 whole entry, looked up): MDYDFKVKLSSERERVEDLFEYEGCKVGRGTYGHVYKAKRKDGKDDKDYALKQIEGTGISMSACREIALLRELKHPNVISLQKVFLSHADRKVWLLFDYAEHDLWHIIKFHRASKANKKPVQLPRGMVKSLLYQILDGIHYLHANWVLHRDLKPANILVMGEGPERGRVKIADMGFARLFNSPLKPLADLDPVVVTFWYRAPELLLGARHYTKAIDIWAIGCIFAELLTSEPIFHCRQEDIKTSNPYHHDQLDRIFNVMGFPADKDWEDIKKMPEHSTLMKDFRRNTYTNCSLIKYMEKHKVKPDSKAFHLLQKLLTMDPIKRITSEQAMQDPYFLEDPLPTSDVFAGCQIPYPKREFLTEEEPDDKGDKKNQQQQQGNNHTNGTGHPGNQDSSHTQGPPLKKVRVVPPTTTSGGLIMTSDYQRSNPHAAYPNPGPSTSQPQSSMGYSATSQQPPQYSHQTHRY

`CNC(=O)c1cc(Oc2ccc(NC(=O)Nc3ccc(Cl)c(C(F)(F)F)c3)cc2)cc[n+]1[O-]` was tested. Which per cent of control [1] did it give?
Its per cent of control is 0.3%.

And the per cent of control [2]?
The per cent of control was 58%.

What about the per cent of control [3] of the same molecule?
The per cent of control was 100%.

And the per cent of control [4]?
The per cent of control was 98%.

And the per cent of control [5]?
Its per cent of control is 2.5%.

And the per cent of control [6]?
The per cent of control was 100%.

What about the per cent of control [7] of the same molecule?
The per cent of control was 0.6%.

What about the per cent of control [8] of the same molecule?
The per cent of control was 0%.

What about the per cent of control [9] of the same molecule?
The per cent of control was 82%.

What about the per cent of control [10] of the same molecule?
The per cent of control was 25%.

What about the per cent of control [11] of the same molecule?
The per cent of control was 88%.

What about the per cent of control [12] of the same molecule?
The per cent of control was 75%.

What about the per cent of control [13] of the same molecule?
The per cent of control was 70%.

What about the per cent of control [14] of the same molecule?
The per cent of control was 2.8%.
